The record followed here is patent US10233184B2, “7-substituted sulfonimidoylpurinone compounds and derivatives for the treatment and prophylaxis of virus infection” (Hoffmann-La Roche Inc., priority 2016, dated 2019).

The nature of one data set: LYSA solubility study. It counts as physicochemical. As to conditions: for solubility thermodynamic: phosphate buffer, pH 6.5, aqueous buffer, thermodynamic from solid. How it is done:
LYSA study is used to determine the aqueous solubility of tested compounds. Samples were prepared in duplicate from 10 mM DMSO stock solution. After evaporation of DMSO with a centrifugal vacuum evaporator, the compounds were dissolved in 0.05M phosphate buffer (pH 6.5), stirred for one hour and shaken for two hours. After one night, the solutions were filtered using a microtiter filter plate. Then the filtrate and its 1/10 dilution were analyzed by HPLC-UV. […] The results were in μg/mL. In case the percentage of sample measured in solution after evaporation divided by the calculated maximum of sample amount was bigger than 80%, the solubility was reported as bigger than this value.

The nature of data set [1]: Single dose PK study in male Wister-Han rats. It counts as in vivo. Particulars: male, Wister-Han, rat, plasma, po, 5 mg/kg, 5 mg/kg oral dosing of active form; for concentration at 7 h: 7 hrs (footnote), read-out: Mean plasma concentration (nM), 7 hrs (row 8*). How it is done:
The single dose PK in Male Wister-Han Rats was performed to assess pharmacokinetic properties of tested compounds. Two groups of animals were dosed via Gavage (POE) of the respective compound. […] Blood samples were placed into tubes containing EDTA-K2 anticoagulant and centrifuged at 5000 rpm for 6 min at 4° C. to separate plasma from the samples. After centrifugation, the resulting plasma was transferred to clean tubes for bioanalysis of both prodrug and active form on LC/MS/MS. In the groups that prodrug were dosed, the concentration of prodrugs in the plasma samples was under the detection limit. The “tested compound” in Table 8 was used as the internal standard for testing the metabolite (active form) of “dose compound” in vivo. The pharmacokinetic parameters were calculated using non-compartmental module of WinNonlin® Professional 6.2. The peak concentration (Cmax) was recorded directly from experimental observations. The area under the plasma concentration-time curve (AUC0-t) was calculated using the linear trapezoidal rule up to the last detectable concentration. Cmax and AUC0-last are two critical PK parameters related to the in vivo efficacy of the tested compound. Compounds with higher Cmax and AUC0-last will lead to the better in vivo efficacy.

A further data set addresses T1, human TLR7 (Homo sapiens, UniProt Q9NYK1).
T1 sequence (Q9NYK1 27-1049): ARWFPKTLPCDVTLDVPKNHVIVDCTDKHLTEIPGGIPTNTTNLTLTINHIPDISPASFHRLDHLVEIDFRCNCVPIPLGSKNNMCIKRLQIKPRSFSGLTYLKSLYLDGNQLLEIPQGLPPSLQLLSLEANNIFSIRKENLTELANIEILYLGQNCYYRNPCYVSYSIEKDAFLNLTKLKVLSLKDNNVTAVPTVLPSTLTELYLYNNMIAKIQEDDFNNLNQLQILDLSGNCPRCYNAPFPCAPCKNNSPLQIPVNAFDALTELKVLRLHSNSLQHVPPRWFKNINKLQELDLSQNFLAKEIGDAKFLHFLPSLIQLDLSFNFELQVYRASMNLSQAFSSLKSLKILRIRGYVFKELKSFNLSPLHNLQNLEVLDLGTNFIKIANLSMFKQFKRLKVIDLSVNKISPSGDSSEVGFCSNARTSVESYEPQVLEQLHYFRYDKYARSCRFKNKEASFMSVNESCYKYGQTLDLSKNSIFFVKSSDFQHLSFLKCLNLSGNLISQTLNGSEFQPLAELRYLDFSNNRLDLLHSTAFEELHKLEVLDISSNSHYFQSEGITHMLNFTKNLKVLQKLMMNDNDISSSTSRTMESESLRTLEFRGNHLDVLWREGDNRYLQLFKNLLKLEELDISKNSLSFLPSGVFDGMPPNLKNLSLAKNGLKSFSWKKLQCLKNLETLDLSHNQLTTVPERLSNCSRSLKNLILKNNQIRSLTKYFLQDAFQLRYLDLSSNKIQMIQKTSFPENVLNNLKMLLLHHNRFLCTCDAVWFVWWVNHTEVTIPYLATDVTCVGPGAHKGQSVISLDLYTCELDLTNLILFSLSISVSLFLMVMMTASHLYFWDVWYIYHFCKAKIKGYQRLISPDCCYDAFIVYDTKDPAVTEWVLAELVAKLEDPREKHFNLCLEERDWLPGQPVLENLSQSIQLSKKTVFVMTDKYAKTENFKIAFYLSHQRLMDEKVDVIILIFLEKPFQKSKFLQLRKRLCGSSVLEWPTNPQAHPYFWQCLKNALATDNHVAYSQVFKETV
Description: HEK293-Blue-hTLR-7 cells assay (SEAP reporter). It counts as cell-based. Particulars: for EC50: HEK293-Blue-hTLR-7 cells, SEAP reporter, 20 hrs; for Ratio (EC50(prodrug)/EC50(active form)): EC50 of prodrug over EC50 of corresponding active form. In a few lines:
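HEK293-Blue-hTLR7 cells with NF-κB/AP-1-driven SEAP reporter exposed to serially diluted compound (1% DMSO) for 20 hrs at 37° C. Supernatant SEAP measured with QUANTI-Blue after 2 hrs at 37° C, absorbance 620~655 nm; agonism expressed as EC50.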

The mark [2] stands for this setting: 0.05M phosphate buffer pH 6.5, read-out: LYSA of Active Forms.
[3] abbreviates: active form, read-out: HEK293-hTLR-7 EC50 (Active form).
Where [4] appears, read: 0.05M phosphate buffer pH 6.5, read-out: LYSA of Prodrugs.
Where [5] appears, read: prodrug, read-out: HEK293-hTLR-7 EC50 (Prodrug).

The structures appear in SMILES notation. ≈ marks a conversion by molar mass, not a printed value. Where “and” joins values, the source holds several entries; their conditions need not be identical. Equal values may be shown once. Read-outs that look alike come from different tables or passages of the source.

For `CC[S@](=N)(=O)c1nc(N)c2[nH]c(=O)n(Cc3ccc(Cl)cc3)c2n1` (single isomer, unassigned) [Compound 41c-A], the solubility thermodynamic in “LYSA solubility study” (setting [2]) was 1 µg/mL (≈ 2.73 µM). Further, in data set [1], the AUC(0-t) – broadly, the area under the concentration-time curve up to a stated or last time point – was 0.242 µM·h; the highest level (Cmax) was 32.3 nM; the concentration at 0.25 h was found to be 16.8 nM; the concentration at 0.5 h came out at 27.5 nM. Further, in data set [1], the concentration at 1 h is 32.3 nM, the concentration at 2 h stood at 27.3 nM, the concentration at 4 h was determined as 27.4 nM and the concentration at 7 h was 18 nM. In addition, the concentration at 24 h in data set [1] turned out to be 5.6 nM. Moreover, the EC50 – broadly, the concentration giving half of the maximal effect – on human TLR7 (setting [3]) was determined as 0.071 µM.
In the case of `CC[S@@](=N)(=O)c1nc(N)c2[nH]c(=O)n(Cc3ccc(Cl)cc3)c2n1` (single isomer, unassigned) [Compound 41c-B], the solubility thermodynamic in “LYSA solubility study” (setting [2]) stood at 5 µg/mL (≈ 13.6 µM). In addition, in data set [1], the AUC(0-t) is 0.0558 µM·h, the peak level (Cmax) was 5.46 nM, the concentration at 0.25 h turned out to be 3.41 nM and the concentration at 0.5 h is 0.75 nM. Besides, in data set [1], the concentration at 1 h came out at 2.04 nM, the concentration at 2 h stood at 5.46 nM, the concentration at 4 h was 2.52 nM and the concentration at 7 h stood at 1.21 nM. Also, the EC50 on human TLR7 (setting [3]) turned out to be 0.085 µM.
For the compound `CC[S@@](=N)(=O)c1nc(N)c2[nH]c(=O)n(Cc3ccc(C)cc3)c2n1` (single isomer, unassigned) [Compound 43e-A], the solubility thermodynamic in the data set “LYSA solubility study” (setting [2]) is 13 µg/mL (≈ 37.5 µM). Further, in data set [1], the AUC(0-t) was 0.077 µM·h; the Cmax – broadly, the highest concentration seen after dosing – came out at 15.2 nM; the concentration at 0.25 h stood at 12.6 nM; the concentration at 0.5 h was 15.2 nM. In data set [1], the concentration at 1 h worked out at 13 nM, the concentration at 2 h was found to be 12 nM, the concentration at 4 h worked out at 8.2 nM and the concentration at 7 h was determined as 6.31 nM. For the same compound, the EC50 on human TLR7 (setting [3]) was 0.11 µM.
For `CCS(=N)(=O)c1nc(N)c2[nH]c(=O)n(Cc3ccc(F)cc3)c2n1` (single isomer, unassigned) [Compound 45e-A], the “LYSA of Active Forms” value in the data set “LYSA solubility study” (aqueous solubility, 0.05M phosphate buffer pH 6.5) came out at 90 µg/mL. In data set [1], this compound showed an AUC(0-t) of 0.767 µM·h, a Cmax of 80 nM, a concentration at 0.25 h of 64.6 nM and a concentration at 0.5 h of 80 nM. In data set [1], this compound had a concentration at 1 h of 58.1 nM, a concentration at 2 h of 42.5 nM, a concentration at 4 h of 77.8 nM and a concentration at 24 h of 8.6 nM. The same compound displayed a concentration at 8 h in data set [1] (8 h) of 34.6 nM. For the same compound, the EC50 at human TLR7 (setting [3]) was 0.39 µM and 0.26 µM.
For the compound `CCCS(=N)(=O)c1nc(N)c2c(n1)n(Cc1ccccc1)c(=O)n2C(=O)N(C)CCC(=O)OC(C)(C)C` (centres unmarked) [Example 16, tert-Butyl 3-[[6-amino-9-benzyl-8-oxo-2-(propylsulfonimidoyl)purine-7-carbonyl]-methyl-amino]propanoate], the solubility thermodynamic in “LYSA solubility study” (setting [4]) was determined as 205 µg/mL (≈ 386 µM). Further, at human TLR7, the “Ratio (EC50(prodrug)/EC50(active form))” value is listed as 493.8. Besides, at human TLR7 (setting [5]), the EC50 was determined as 32.1 µM.
On the same counts, the results for `CCCS(=N)(=O)c1nc(N)c2c(n1)n(Cc1ccccc1)c(=O)n2C(=O)N(C)CCN(C)C(C)=O` (centres unmarked) [Example 25, N-[2-[Acetyl(methyl)amino]ethyl]-6-amino-9-benzyl-N-methyl-8-oxo-2-(propylsulfonimidoyl)purine-7-carboxamide] are greater than 670 µg/mL, 372.3 and 24.2 µM.
Turning to `CCCS(=N)(=O)c1nc(N)c2c(n1)n(Cc1ccccc1)c(=O)n2C(=O)N(C)CCN(C)C(=O)OC` (centres unmarked) [Example 26, Methyl N-[2-[[6-amino-9-benzyl-8-oxo-2-(propylsulfonimidoyl)purine-7-carbonyl]-methyl-amino]ethyl]-N-methyl-carbamate], the solubility thermodynamic in the data set “LYSA solubility study” (setting [4]) is greater than 690 µg/mL. Further, on human TLR7, the “Ratio (EC50(prodrug)/EC50(active form))” value is recorded as 206.2. Moreover, on human TLR7 (setting [5]), the EC50 was determined as 13.4 µM.
In the case of `CCCS(=N)(=O)c1nc(N)c2c(n1)n(Cc1ccccc1)c(=O)n2C(=O)N(C)CCN(C)C(=O)OC(C)(C)C` (centres unmarked) [Example 27, tert-Butyl N-[2-[[6-amino-9-benzyl-8-oxo-2-(propylsulfonimidoyl)purine-7-carbonyl]-methyl-amino]ethyl]-N-methyl-carbamate], the solubility thermodynamic in “LYSA solubility study” (setting [4]) was greater than 380 µg/mL. Further, at human TLR7 (setting [5]), the EC50 amounted to 31.7 µM.
Turning to `CCCS(=N)(=O)c1nc(N)c2c(n1)n(Cc1ccccc1)c(=O)n2C(=O)N(C)CCN(C)C(=O)OCC` (centres unmarked) [Example 28, Ethyl N-[2-[[6-amino-9-benzyl-8-oxo-2-(propylsulfonimidoyl)purine-7-carbonyl]-methyl-amino]ethyl]-N-methyl-carbamate], the solubility thermodynamic in “LYSA solubility study” (setting [4]) was 695 µg/mL (≈ 1300 µM). Besides, the “Ratio (EC50(prodrug)/EC50(active form))” value on human TLR7 is on record as 106.2. The EC50 on human TLR7 (setting [5]) turned out to be 6.9 µM.
In the case of `CCCCN(C)C(=O)OCCN(C)C(=O)n1c(=O)n(Cc2ccccc2)c2nc(S(=N)(=O)CCC)nc(N)c21` (centres unmarked) [Example 29, 2-[[6-Amino-9-benzyl-8-oxo-2-(propylsulfonimidoyl)purine-7-carbonyl]-methyl-amino]ethyl N-butyl-N-methyl-carbamate], the solubility thermodynamic in “LYSA solubility study” (setting [4]) came to 395 µg/mL (≈ 705 µM). The “Ratio (EC50(prodrug)/EC50(active form))” value on human TLR7 was found to be 750.8. The EC50 on human TLR7 (setting [5]) is 48.8 µM.
As to `CCCS(=N)(=O)c1nc(N)c2c(n1)n(Cc1ccccc1)c(=O)n2C(=O)N(C)CCOC(=O)N(CC)CC` (centres unmarked) [Example 32, 2-[[6-Amino-9-benzyl-8-oxo-2-(propylsulfonimidoyl)purine-7-carbonyl]-methyl-amino]ethyl N,N-diethylcarbamate], in the data set “LYSA solubility study” (setting [4]), the solubility thermodynamic came to 125 µg/mL (≈ 229 µM). Also, on human TLR7, the “Ratio (EC50(prodrug)/EC50(active form))” value is on record as 346.2. Moreover, on human TLR7 (setting [5]), the EC50 was found to be 22.5 µM.
For the compound `CCCN(C)C(=O)n1c(=O)n(Cc2ccc(C)cc2)c2nc([S@@](=N)(=O)CCC)nc(N)c21` [Example 36-A, 6-Amino-N-methyl-8-oxo-N-propyl-2[S(S)-propylsulfonimidoyl]-9-(p-tolylmethyl)purine-7-carboxamide], the solubility thermodynamic in “LYSA solubility study” (setting [4]) is 168 µg/mL (≈ 366 µM). For the same compound, the “Ratio (EC50(prodrug)/EC50(active form))” value on human TLR7 is recorded as 1673.7. On human TLR7 (setting [5]), the EC50 worked out at 31.8 µM.
